Earlier results as cited in patent publication US7947458B1, “Placental human neurokinin B precursor” (Perinatal Diagnostics Limited, priority 1999, dated 2011).
Where two headings read alike, the source gives them in different places. Each block holds one compound with its values, some of them ahead of it. Ends that are not written are not given here.

Experiments:
[1] = target: NK1 receptor (Homo sapiens, UniProt P25103)
[2] = target: T1, NK2 receptors (Homo sapiens, UniProt P21452)
T1 sequence (P21452 1-398): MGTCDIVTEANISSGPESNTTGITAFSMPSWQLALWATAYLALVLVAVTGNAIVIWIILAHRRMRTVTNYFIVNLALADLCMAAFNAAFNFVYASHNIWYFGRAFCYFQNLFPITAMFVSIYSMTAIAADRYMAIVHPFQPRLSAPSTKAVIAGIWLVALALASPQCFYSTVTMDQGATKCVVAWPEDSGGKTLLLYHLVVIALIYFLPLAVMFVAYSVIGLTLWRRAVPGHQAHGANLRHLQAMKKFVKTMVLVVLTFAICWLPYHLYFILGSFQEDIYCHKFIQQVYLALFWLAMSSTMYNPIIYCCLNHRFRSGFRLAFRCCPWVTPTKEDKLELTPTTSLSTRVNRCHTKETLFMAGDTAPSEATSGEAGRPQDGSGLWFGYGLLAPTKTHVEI

[3] = dog, in vivo
[4] = system: mesenteric vascular bed
[5] = system: hepatic portal vein
[6] = target: T2, NK3 receptor (Homo sapiens, UniProt P29371)
T2 sequence (P29371 1-465): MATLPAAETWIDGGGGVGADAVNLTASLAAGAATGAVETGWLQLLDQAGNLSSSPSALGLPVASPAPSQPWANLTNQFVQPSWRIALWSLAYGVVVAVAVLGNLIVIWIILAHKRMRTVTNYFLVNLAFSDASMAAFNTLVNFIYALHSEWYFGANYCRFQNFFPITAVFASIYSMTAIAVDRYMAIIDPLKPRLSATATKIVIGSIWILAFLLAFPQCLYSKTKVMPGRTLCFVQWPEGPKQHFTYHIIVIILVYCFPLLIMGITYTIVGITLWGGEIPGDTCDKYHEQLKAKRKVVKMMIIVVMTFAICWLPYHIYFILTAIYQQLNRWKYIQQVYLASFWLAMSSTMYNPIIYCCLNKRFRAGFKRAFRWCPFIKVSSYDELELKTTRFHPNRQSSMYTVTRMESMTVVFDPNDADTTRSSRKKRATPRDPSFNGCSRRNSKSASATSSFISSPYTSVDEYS

[7] = intravenous injections, guinea pigs
[8] = intravenous infusion, rats

Chain of NK1 receptor (P25103 whole entry, species assumed): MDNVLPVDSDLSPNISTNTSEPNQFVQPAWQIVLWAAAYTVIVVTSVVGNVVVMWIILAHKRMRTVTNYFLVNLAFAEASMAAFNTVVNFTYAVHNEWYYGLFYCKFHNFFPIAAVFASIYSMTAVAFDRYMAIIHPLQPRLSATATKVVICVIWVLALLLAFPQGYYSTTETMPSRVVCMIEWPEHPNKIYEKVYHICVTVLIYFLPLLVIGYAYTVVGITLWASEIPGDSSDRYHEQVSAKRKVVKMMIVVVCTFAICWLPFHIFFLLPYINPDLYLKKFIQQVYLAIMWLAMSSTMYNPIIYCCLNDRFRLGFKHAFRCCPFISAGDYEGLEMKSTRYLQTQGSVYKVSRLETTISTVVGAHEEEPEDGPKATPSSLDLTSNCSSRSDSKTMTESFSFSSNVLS

Compound: neurokinin A (HKTDSFVGLM-NH2; ends and bridges not checked; UniProt P20366 98-107, looked up) [substance K, tachykinin designated substance K or neurokinin A]
effect on heart rate [3]: slow down the heart rate

Compound: substance P (RPKPQQFFGLM-NH2; ends and bridges not checked; UniProt P20366 58-68, looked up)
effect on heart rate [3]: slow down the heart rate

Now from value to compound, other results behind:

affinity for the NK1 receptor [1]: high affinity
Compound: CN(Cc1ccccc1)C(=O)[C@H](Cc1ccc2ccccc2c1)NC(=O)[C@@H]1C[C@@H](O)CN1C(=O)c1cn(C)c2ccccc12 [FK 888]

affinity and selectivity for NK2 receptors [2]: high affinity and selectivity
Compound: CC(=O)NC1(c2ccccc2)CCN(CC[C@H](CN(C)C(=O)c2ccccc2)c2ccc(Cl)c(Cl)c2)CC1 [SR 48968]

potency rank among tachykinins at the NK3 receptor [6]: most potent member of the family
Compound: neurokinin B [NKB]
vasoconstriction, potency rank among neurokinins [4]: most potent neurokinin to cause vasoconstriction
contraction, potency rank among neurokinins [5]: most potent neurokinin
effect on blood pressure [7]: dose related hypertension
effect on blood pressure [8]: increase in blood pressure
